# Measurements: ChEMBL document CHEMBL1155554, “(2R,3R,7Z)-2-Aminotetradec-7-ene-1,3-diol, a new amino alcohol from the caribbean sponge Haliclona vansoesti” (J Nat Prod, 2000)
# Assay: Toxicity in brine shrimp
# Assay type: organism-based
# Settings: artemia, in vivo; read-out: LD50 (the source's name)
compound,measurement,value
CCCCCC/C=C\CCC[C@@H](O)[C@H](N)CO,LC50,9 µg/mL
